# Like-named read-outs stand apart in the source and are kept apart here. Square brackets hold non-standard residues; d marks the D form. Side chains are listed from the residue outwards. Ends that are not written are not given here. Peptide text beside a SMILES is read from it. maleimide = maleimide activating group on PEG that reacts with a thiol-containing amino acid by Michael addition to form a thioether linkage (PEGylation); Aib = CC(C)(N)C(=O)O; Sar = CNCC(=O)O
# Columns and labels:
# glucagon receptor = glucagon receptor (Homo sapiens, UniProt P47871); assay: glucagon antagonism of Class 4 peptides, cAMP production in vitro; type: cell-based; settings: PLA at position 6 versus positions 4 and 5
# Chain of glucagon receptor (P47871 26-477): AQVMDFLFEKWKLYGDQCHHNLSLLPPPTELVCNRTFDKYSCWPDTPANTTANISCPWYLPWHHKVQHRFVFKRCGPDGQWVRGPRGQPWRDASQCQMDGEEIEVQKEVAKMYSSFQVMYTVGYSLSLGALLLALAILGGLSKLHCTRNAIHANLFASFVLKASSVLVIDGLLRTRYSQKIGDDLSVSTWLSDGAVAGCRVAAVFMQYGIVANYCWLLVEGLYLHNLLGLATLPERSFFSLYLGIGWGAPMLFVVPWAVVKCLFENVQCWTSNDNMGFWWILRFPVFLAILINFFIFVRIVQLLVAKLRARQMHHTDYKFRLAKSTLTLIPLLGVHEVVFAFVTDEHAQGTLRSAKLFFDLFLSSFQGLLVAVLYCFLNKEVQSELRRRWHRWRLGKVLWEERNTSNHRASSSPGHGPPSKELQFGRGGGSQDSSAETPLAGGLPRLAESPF
# GLP-1 receptor = GLP-1 receptor (Homo sapiens, UniProt P43220); assay: GLP-receptor Luciferase assay of prodrug samples incubated in PBS; type: cell-based; settings: Table 5
# Chain of GLP-1 receptor (P43220 24-463, species assumed): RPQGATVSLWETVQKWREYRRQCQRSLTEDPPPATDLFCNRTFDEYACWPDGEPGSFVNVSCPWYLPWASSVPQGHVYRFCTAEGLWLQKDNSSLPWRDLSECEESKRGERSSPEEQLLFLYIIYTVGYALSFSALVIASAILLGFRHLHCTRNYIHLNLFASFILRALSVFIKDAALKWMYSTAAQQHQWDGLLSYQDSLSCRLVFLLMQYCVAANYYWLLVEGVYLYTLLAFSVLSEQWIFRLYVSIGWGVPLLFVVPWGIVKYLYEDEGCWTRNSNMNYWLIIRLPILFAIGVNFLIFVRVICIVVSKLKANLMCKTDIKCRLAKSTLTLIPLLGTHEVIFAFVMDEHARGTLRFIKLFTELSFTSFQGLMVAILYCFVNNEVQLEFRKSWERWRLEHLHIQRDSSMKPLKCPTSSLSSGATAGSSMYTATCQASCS
# [1] = Dipeptide cleavage half time in PBS on model hexapeptide (HPLC, LC-MS); type: physicochemical; settings: for Relative peak area(%), HPLC peak a: molecular weight 702; for Relative peak area(%), HPLC peak b: molecular weight 902
# Protocol: The hexapeptide was assembled on a peptide synthesizer.
# Then it was incubated at 37° C. in a water bath. […] HPLC was used to monitor the cleavage reaction.
# The flow rate was 1 mL/min.
# The slope of this plot gives the rate constant I′.
compound,measurement,setting,value
PLA6 analog: glucagon peptide with first 5 amino acids removed and remaining N-terminal amino group replaced with a hydroxyl group (phenyl-lactic acid),glucagon antagonist potency compared with analogs having a slightly extended N-terminus,glucagon receptor,appreciably more potent antagonist
"40 k PEG-Aib^−1-P^0,C^24GLP(7-36): Aib^−1-P^0,C^24GLP(7-36) pegylated by maleimido-functioned 40 k Da PEG on the SH group of 24-Cys ([Aib]PHAEGTFTSDVSSYLEGQAAKEFIC([maleimide-PEG 40 kDa])WLVKGR; ends and bridges not checked)",EC50%/STD ratio,GLP-1 receptor; 30 h in PBS,17.31%
same,EC50%/STD ratio,GLP-1 receptor; 54 h in PBS,27.74%
same,EC50%/STD ratio,GLP-1 receptor; 240 h in PBS,66.49%
same,EC50%/STD ratio,GLP-1 receptor; […] in PBS,55.90%
C[C@H](O)[C@@H](NC(=O)CNC(=O)[C@@H](CCCNC(=N)N)NC(=O)[C@H](NC(=O)[C@@H](Cc1c[nH]cn1)NC(=O)CN(C)C(=O)[C@@H](N)CCCCN)[C@H](C)O)C(=O)N[C@H](Cc1ccccc1)C(N)=O [lys-sar-dHdTdRGdTdF-NH2] (H-K[Sar][dH][dT][dR]G[dT][dF]-NH2),"Relative peak area(%), HPLC peak a","5 h in plasma pH 7.4, 37° C., molecular weight 702",17.0%
same,"Relative peak area(%), HPLC peak b","5 h in plasma, molecular weight 902",83.0%
same,"Relative peak area(%), HPLC peak a",11 h in plasma,29.2%
same,"Relative peak area(%), HPLC peak b",11 h in plasma,70.8%
same,"Relative peak area(%), HPLC peak a",24 h in plasma,60.2%
same,"Relative peak area(%), HPLC peak b",24 h in plasma,39.8%
same,"Relative peak area(%), HPLC peak a",32 h in plasma,54.0%
same,"Relative peak area(%), HPLC peak b",32 h in plasma,46.0%
same,"Relative peak area(%), HPLC peak a",48 h in plasma,27.6%
same,"Relative peak area(%), HPLC peak b",48 h in plasma,72.4%
C[C@@H](O)[C@H](NC(=O)CNC(=O)[C@H](CCCNC(=N)N)NC(=O)[C@H](CO)NC(=O)[C@H](Cc1c[nH]cn1)NC(=O)CN(C)C(=O)[C@@H](N)CCCCN)C(=O)N[C@@H](Cc1ccccc1)C(N)=O [lys-sar-HSRGTF-NH2] (H-K[Sar]HSRGTF-NH2; N-terminus assumed),"Relative peak area(%), HPLC peak a","[1]; 5 h in PBS pH 7.4, 37° C.",26.5%
same,"Relative peak area(%), HPLC peak b","[1]; 5 h in PBS pH 7.4, 37° C.",73.5%
same,"Relative peak area(%), HPLC peak a",[1]; 8 h in PBS,28.9%
same,"Relative peak area(%), HPLC peak b",[1]; 8 h in PBS,71.1%
same,"Relative peak area(%), HPLC peak a",[1]; 24 h in PBS,28.8%
same,"Relative peak area(%), HPLC peak b",[1]; 24 h in PBS,71.2%
same,"Relative peak area(%), HPLC peak a",[1]; 31 h in PBS,77.7%
same,"Relative peak area(%), HPLC peak b",[1]; 31 h in PBS,22.3%
same,"Relative peak area(%), HPLC peak a",[1]; 47 h in PBS,90.0%
same,"Relative peak area(%), HPLC peak b",[1]; 47 h in PBS,10.0%
same,half-life,"[1]; phosphate buffered saline (PBS) buffer, pH 7.4",14 h

# From US8969288B2 (Indiana University Research and Technology Corporation, priority 2008, dated 2015)
